Source: article PMC6688371, “Effect of the inhaled PDE4 inhibitor CHF6001 on biomarkers of inflammation in COPD” (Respiratory Research, 2019)

Tested on: markers of inflammation in sputum
Test: Markers of inflammation in induced sputum
Type: in vivo, human
Conditions: geometric mean (%CV); for α-2-macroglobulin in sputum, post-baseline: mean of Days 20, 26 and 32
Protocol: Induced sputum was collected pre-dose on Day 1 of each treatment period (for the first treatment period, the sample could be collected up to 10 days prior to Day 1), and 2 h post-dose on Days 20, 26 and 32 (see the Additional file 1 for further detail on sputum and blood analysis methods). Blood samples were taken pre-dose on Day 1, and pre-dose and at 30 min, and 1, 1.5, 2, 3, 4, 6, 8 and 12 h post-dose on Day 32. Other pre-dose assessments on Days 1 and 32 were spirometry (forced expiratory volume in 1 s [FEV1] and forced vital capacity [FVC]), forced oscillometry, and COPD Assessment Test (CAT), with Baseline Dyspnea Index recorded on Day 1 and Transition Dyspnea Index (TDI) on Day 32. Central and peripheral airways mechanics were assessed using forced oscillometry, with the following values determined: inspiratory and expiratory resistance (at 5 and 19 Hz), inspiratory and expiratory reactance, tidal expiratory flow limitation and the percentage of flow limited breaths.
A patient had to have a minimum of one acceptable sputum sample on Day 20, 26 or 32 to be included in the sputum biomarker evaluation for that treatment period, with the available cell count and biomarker data averaged for each patient. The mean change from baseline (pre-dose on Day 1 of each treatment period) was then compared between treatments using an analysis of covariance (ANCOVA) that included treatment, patient and period as fixed effects, and baseline values as covariate. The mean change from baseline to Day 32 for biomarkers in blood were analysed using the same model as for sputum data. All data were log-transformed before analysis, and the results are presented as ratio of geometric means.
Effect of CHF6001 on inflammatory biomarkers – Additional file 1 […]
Analysis of biomarkers and CHF6001 concentration in sputum
Sputum samples were collected by sputum induction, with patients breathing in nebuli sed hypertonic saline at increasing concentrations (3%, then 4% and finally 5%) while wearing a nose clip. Sputum plugs were isolated, processed by centrifugation and analysed to determine inflammatory cell counts (with total cell counts performed by each s ite’s local laboratory and differential counts at a central laboratory), as follows.
All solid or dense-looking material was collected from the clear salivary fluid into a stainless steel Petri dish lid. Sputum plugs were then gathered and condensed into one mass. After cleaning the Petri dish, cold Dulbecco's Phosphate -Buffered Saline equal to eight times the weight of the sputum plug was added, then dispersed , mixed and vortexed for 15 sec, before gently agitating on a rolling mixer or rocker for 15 min at room temperature. The resulting mixture was centrifuged at 790 g for 10 min at 4C. A volume of the supernatant equal to four times the weight of the sputum plug was removed and again centrifuged at 1500 g for 10 min at 4C. The clarified supernatant was divided into four equal aliquots, which were shipped in an upright position at –80C to a central laboratory for biomarker assessment. Levels of biomarkers were assessed as follows:
• α-2-macroglobulin: Meso Scale Diagnostics ELISA method .
• Interleukin (IL) 6 and 1β, C-X-C motif chemokine ligand 8 (CXCL8) and tumour necrosis factor (TNF) α: Meso Scale Diagnostics Pro-inflammatory v-PLEX Plus kit.
• Leukotriene B4: High pressure liquid chromatography with tandem mass spectroscopy (HPLC-MS/MS).
• Myeloperoxidase (MPO): Meso Scale Diagnostics MPO v-PLEX kit.
• Neutrophil elastase (NE): Luminex MAGPIX System Human Sepsis Magnetic Bead […]
• Monocyte chemotactic protein (MCP) 1 (also known as C-C motif chemokine ligand [CCL] 2) and macrophage inflammatory protein (MIP) 1β (also known as CCL4):
Meso Scale Diagnostics Chemokine v-PLEX Plus kit.
• Matrix metalloproteinase (MMP) 9: Sandwich Immunoassay, using PheraSTAR Plate […]
• Total protein: Pierce BCA protein assay.
Validation procedures followed those outlined in the “Guideline on Bioanalytical Method […]

## CS(=O)(=O)Nc1ccc(C(=O)O[C@@H](Cc2c(Cl)c[n+]([O-])cc2Cl)c2ccc(OC(F)F)c(OCC3CC3)c2)cc1OCC1CC1 [CHF6001]
800 µg BID
  C-X-C motif chemokine ligand 8 in sputum, post-baseline: 1828.97 (140.2) pg/mL
  Interleukin 1β in sputum, post-baseline: 13.6127 (599.5) pg/mL
  Interleukin 6 in sputum, post-baseline: 48.7856 (108.7) pg/mL
  Leukotriene B4 in sputum, post-baseline: 872.363 (135.0) pg/mL
  Macrophage inflammatory protein 1β in sputum, post-baseline: 68.2963 (153.5) pg/mL
  Matrix metalloproteinase 9 in sputum, post-baseline: 175.9824 (292.9) ng/mL
  Monocyte chemotactic protein-1 in sputum, post-baseline: 136.8746 (89.9) pg/mL
  Myeloperoxidase in sputum, post-baseline: 476,409.369 (720.8) pg/mL
  Neutrophil elastase in sputum, post-baseline: 82,640.61 (281.5) pg/mL
  Total protein in sputum, post-baseline: 320.329 (100.5) µg/mL
  Tumour necrosis factor α in sputum, post-baseline: 1.595 (265.2) pg/mL
  α-2-macroglobulin in sputum, post-baseline: 247.464 (233.4) ng/mL
1600 µg BID
  C-X-C motif chemokine ligand 8 in sputum, post-baseline: 2104.09 (127.3) pg/mL
  Interleukin 1β in sputum, post-baseline: 13.2876 (377.1) pg/mL
  Interleukin 6 in sputum, post-baseline: 55.8291 (107.5) pg/mL
  Leukotriene B4 in sputum, post-baseline: 678.965 (274.2) pg/mL
  Macrophage inflammatory protein 1β in sputum, post-baseline: 60.8680 (139.7) pg/mL
  Matrix metalloproteinase 9 in sputum, post-baseline: 176.3384 (249.4) ng/mL
  Monocyte chemotactic protein-1 in sputum, post-baseline: 152.5465 (108.2) pg/mL
  Myeloperoxidase in sputum, post-baseline: 494,342.192 (536.6) pg/mL
  Neutrophil elastase in sputum, post-baseline: 84,470.09 (238.7) pg/mL
  Total protein in sputum, post-baseline: 327.176 (102.5) µg/mL
  Tumour necrosis factor α in sputum, post-baseline: 1.687 (342.0) pg/mL
  α-2-macroglobulin in sputum, post-baseline: 247.877 (270.6) ng/mL
